Reference: patent publication US20250002526A1, “PHARMACEUTICAL COMPOSITION HAVING ANTI-CANCER IMMUNOSTIMULATING EFFECT AND/OR IMMUNE CHECKPOINT INHIBITION POTENTIATING EFFECT” (KYUSHU UNIVERSITY, NATIONAL UNIVERSITY CORPORATION, priority 2021, published 2025)
Where two headings read alike, the source gives them in different places.

Legend:
[1] = target: T1, recombinant human SULT2B1b protein (Homo sapiens, UniProt O00204); assay: SULT assay (in vitro SULT2B1b enzymatic activity measurement); type: biochemical; conditions: test compound 200 μM; relative to DMSO control (100%); read-out: in vitro SULT2B1b assay % activity at 200 μM
T1 sequence (O00204 1-365): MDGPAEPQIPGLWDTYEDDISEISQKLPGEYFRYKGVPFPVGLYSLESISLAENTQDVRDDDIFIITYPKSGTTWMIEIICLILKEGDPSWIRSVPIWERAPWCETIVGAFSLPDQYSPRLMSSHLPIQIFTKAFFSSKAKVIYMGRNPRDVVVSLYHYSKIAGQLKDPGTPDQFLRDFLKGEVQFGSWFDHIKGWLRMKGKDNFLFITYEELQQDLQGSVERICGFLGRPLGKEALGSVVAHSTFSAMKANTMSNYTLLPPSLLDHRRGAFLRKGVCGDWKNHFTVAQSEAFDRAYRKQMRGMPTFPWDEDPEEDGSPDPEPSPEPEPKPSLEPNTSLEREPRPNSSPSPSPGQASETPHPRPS
Experimental: For screening for a SULT2B1b inhibitor, enzymatic activity measurement for SULT2B1b was carried out by a method described in a previous report (NPL 2) with slight modifications.
The reaction solution (50 μl) was composed of 1 to 5 μg of recombinant human SULT2B1b protein, 10 μM [^3H]cholesterol (approximately 4,000 dpm/pmol), 10 mM Tris-HCl (pH 7.5, containing 5 mM MgCl2) containing 0.1 mM 3′-phosphoadenosine 5′-phosphosulfate (PAPS), 0.2 mM 2-hydroxypropyl-β-cyclodextrin, and 5% (v/v) ethanol. Recombinant human SULT2B1b protein was pre-incubated with 1 μl of a test compound (final concentration: 40 or 200 μM) or DMSO (control) at room temperature for 15 minutes, 2 mM PAPS (2.5 μl) was then added to initiate reaction, the resultant was reacted at 37° C. for 15 minutes, and 0.8 ml of ethanol was added to terminate the reaction.
The solution after the reaction was subjected to thin-layer chromatography (TLC) for separation, and then to a liquid scintillation counter to quantify radiolabeled CS.
From the percentage to the amount ([…]) of radiolabeled CS generated through reaction in the absence of the test compound (DMSO) (control), the SULT2B1b activity (% activity) of SULT2B1b protein in the presence of the test compound was evaluated, and the effect of the test compound to inhibit SULT2B1b-mediated CS production (CS production inhibitory effect) was evaluated.
In enzyme assay, SULT assay was performed with use of cholenoic acid as a compound to be tested at different cholesterol and PAPS concentrations (wherein 0.5 to 1 μg of recombinant human SULT2B1b protein was used, the preincubation time and reaction time were each 10 minutes), and the results were fitted to the Michaelis-Menten equation by using Prism 9 (GraphPad Software, Inc.) to perform enzyme kinetic analysis for the inhibition by cholenoic acid.
SULT assay was performed for the compounds as test compounds by the method described in (14) of “II. Experimental procedure” in Experiment Example 1 to evaluate the SULT2B1b inhibitory effects of the compounds.

[2] = system: SULT2B1b-mediated CS production in E0771-SULT cells; assay: CS production inhibitory effect in E0771-SULT cells (LC/MS/MS quantification of CS); type: cell-based, mouse; conditions: Mus musculus; for activity at 10 µM: relative to control (100%)
Experimental: CS in each human cancer tissue sample was quantified by a method described in NPL 2. To monitor the amounts of CS and/or oxysterol generated in E0771, 3LL, EG.7-OVA, and MC38 cells irrespective of the presence or absence of SULT2B1b expression, cells of each type were seeded in a 6-well plate at 5×10^5 cells/well, and the culture supernatant and cell pellet were collected after 24 hours. Subsequently, deuterium-labeled internal standard (IS) compounds (d7-CS [[…]] and d6-25-hydroxycholesterol) were added to fractions of the culture supernatant and cell pellet, each of which was subjected to extraction with 1 mL of extraction solvent (methanol/chloroform/water=5:2:2 [v/v/v]) to extract CS and oxysterol from the culture supernatant or cell pellet.
Each sample was vigorously mixed with a vortex for 1 minute, and then ultrasonicated for 5 minutes. Thereafter, the sample was centrifuged at 16,000×g and 4° C. for 5 minutes, and the supernatant (700 μl) was collected in a clean tube. Into this, 235 μl of chloroform and 155 μl of water were added and mixed, and the resultant was then subjected to vortexing followed by centrifugation to separate into an aqueous layer and an organic layer. Subsequently, 200 μl of the lowermost layer was dried under a nitrogen flow.
The dried sample was dissolved in 50 μl of methanol, and CS and oxysterol therein were quantified by liquid chromatography-tandem mass spectrometry (LC/MS/MS) with a triple quadrupole mass spectrometer (LCMS-8060; Shimadzu Corporation) equipped with an electrospray ionization (ESI) ion source in a multiple reaction monitoring (MRM) mode.
• Column: Inertsil ODS-4 (2.1×150 mm; particle size: 3 μm; GL Sciences Inc.) • Column temperature: 40° C. • Flow rate: 0.3 ml/min • Mobile phase: (A) water/acetonitrile (1:2, v/v) containing 5 mM ammonium acetate (B) Methanol/Isopropanol (1:19, v/v) Containing 5 mM Ammonium Acetate • Gradient curve: 0 min→22 min: (B) 0%→100%, • 22 min→27 min: (B) 100%, • 27 min→27.1 min: (B) 100%→0%, • 27.1 min→30 min: (B) 0% • Injection volume: 5 μl • Mass spectrometry mode: positive and negative ion modes • Electrospray voltage: 4 kV in positive ion mode, −3.5 kV in negative ion mode • Nebulizer gas flow rate: 3.0 L/min • Drying gas flow rate: 10.0 L/min • Desolvation temperature: 250° C. • Heat block temperature: 400° C. • Detector voltage: 2.16 kV • Used were MRM mode and 2 msec of dwell time per channel.
Absolute CS and oxysterol contents were calculated from calibration curves. MRM calibration curves were prepared with chromatographic peak areas for the analytes relative to peak areas for internal standards through three times of analysis for standard solutions.
The CS production effects of test compounds (compounds 1 to 19, 21, 23, 25, and 27 to 32) were evaluated with the mouse breast cancer cell line E0771 expressing SULT2B1b (E0771-SULT cells).
Specifically, as in the above description in experimental procedure (12), E0771-SULT cells were seeded in a 6-well plate at a proportion of 5×10^5 cells/well, and cultured in the presence or absence (control) of each test compound for 24 hours. After culturing, CS generated in E0771-SULT cells was quantified by LC/MS/MS according to the description in experimental procedure (12). The CS production capacity (% activity) of cells cultured in the presence of each test compound was evaluated from the percentage relative to the CS production level (control) (100%) in E0771-SULT cells cultured in the absence of the test compound, and the CS production inhibitory effect of the test compound was evaluated.

[3] = 24 h, read-out: CS production % activity at 10 μM, E0771-SULT cells, 24 hours, test compound 10 μM (Table 1)

| Compound | activity at 200 µM [1] | activity at 10 µM [2, 3] | activity at 10 µM ([2]; 24 h, read-out: CS production % activity at 10 μM, E0771-SULT cells, 24 hours, third concentration column of Table 1, head again printed 10 μM) | activity at 20 µM ([2]; 24 h, read-out: CS production % activity at 20 μM, E0771-SULT cells, 24 hours, test compound 20 μM, relative to control without compound (100%)) | IC50 ([2]; read-out: IC50 value (CS production)) |
| --- | --- | --- | --- | --- | --- |
| C[C@H](CCC(=O)N1CCOCC1)[C@H]1CC[C@H]2[C@@H]3CC=C4C[C@H](N=[N+]=[N-])CC[C@]4(C)[C@H]3CC[C@]12C [Compound 12, (R)-4-((3R,8S,9S,10R,13R,14S,17R)-3-azido-10,13-dimethyl-2,3,4,7,8,9,10,11,12,13,14,15,16,17-tetradecahydro-1H-cyclopenta[a]phenanthren-17-yl)-1-morpholinopentan-1-one] | 8.3% | 98.4% | – | – | – |
| CO[C@H]1CC[C@@]2(C)C(=CC[C@H]3[C@@H]4CC[C@H]([C@H](C)CCC(=O)O)[C@@]4(C)CC[C@@H]32)C1 [Compound 6, (R)-4-((3S,8S,9S,10R,13R,14S,17R)-3-methoxy-10,13-dimethyl-2,3,4,7,8,9,10,11,12,13,14,15,16,17-tetradecahydro-1H-cyclopenta[a]phenanthren-17-yl)pentanoic acid] | 22.9% | 74.5% | 80.7% | 70.3% | 32.4 µM |
